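All cell lines were grown in 96-well plates and treated with compound for 48 hours. Here, GI50 denotes the concentration required for 50% inhibition of growth. TGI marks complete inhibition of growth.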
Legend:
Experiment in all cases: NCI-60 cell line screen, 48 h
UACC-62 melanoma = system: UACC-62 melanoma
ACHN renal = system: ACHN renal
786-0 renal = system: 786-0 renal
SK-OV-3 ovarian = system: SK-OV-3 ovarian
MALME-3M melanoma = system: MALME-3M melanoma
HT29 colon = system: HT29 colon
MOLT-4 leukemia = system: MOLT-4 leukemia
HCT-116 colon = system: HCT-116 colon
COLO 205 colon = system: COLO 205 colon
NCI-H23 lung = system: NCI-H23 lung
SF-539 CNS = system: SF-539 CNS
DU-145 prostate = system: DU-145 prostate
A549 NSCLC = system: A549 NSCLC
SN12C renal = system: SN12C renal
HOP-62 NSCLC = system: HOP-62 NSCLC
OVCAR-8 ovarian = system: OVCAR-8 ovarian
NCI-H522 lung = system: NCI-H522 lung
MDA-MB-231 breast = system: MDA-MB-231 breast
NCI-H460 lung = system: NCI-H460 lung
CCRF-CEM leukemia = system: CCRF-CEM leukemia
LOX IMVI melanoma = system: LOX IMVI melanoma
RXF 393 renal = system: RXF 393 renal
SK-MEL-28 melanoma = system: SK-MEL-28 melanoma
SK-MEL-5 melanoma = system: SK-MEL-5 melanoma
SF-295 CNS = system: SF-295 CNS
IGROV1 ovarian = system: IGROV1 ovarian
NCI/ADR-RES ovarian = system: NCI/ADR-RES ovarian
HS 578T breast = system: HS 578T breast
SNB-75 CNS = system: SNB-75 CNS
RPMI-8226 leukemia = system: RPMI-8226 leukemia
UACC-257 melanoma = system: UACC-257 melanoma
A498 renal = system: A498 renal
T-47D breast = system: T-47D breast
HL-60(TB) leukemia = system: HL-60(TB) leukemia
SR leukemia = system: SR leukemia
SNB-19 CNS = system: SNB-19 CNS
HOP-92 NSCLC = system: HOP-92 NSCLC
TK-10 renal = system: TK-10 renal
PC-3 prostate = system: PC-3 prostate
NCI-H226 lung = system: NCI-H226 lung
HCT-15 colon = system: HCT-15 colon
HCC-2998 colon = system: HCC-2998 colon
UO-31 renal = system: UO-31 renal
M14 melanoma = system: M14 melanoma
K-562 leukemia = system: K-562 leukemia
BT-549 breast = system: BT-549 breast
MDA-MB-435 = system: MDA-MB-435
OVCAR-3 ovarian = system: OVCAR-3 ovarian
CAKI-1 renal = system: CAKI-1 renal
SW-620 colon = system: SW-620 colon
SF-268 CNS = system: SF-268 CNS
SK-MEL-2 melanoma = system: SK-MEL-2 melanoma
KM12 colon = system: KM12 colon
EKVX NSCLC = system: EKVX NSCLC
U251 CNS = system: U251 CNS

O=S(=O)(Nc1cc(Br)c(O)c2ccccc12)c1ccc(F)cc1
GI50 (UACC-62 melanoma): 1.92 µM
TGI (UACC-62 melanoma): 3.88 µM
GI50 (ACHN renal): 3.31 µM
TGI (ACHN renal): 14.1 µM
GI50 (786-0 renal): 3.35 µM
TGI (786-0 renal): 11.3 µM
GI50 (SK-OV-3 ovarian): 14.7 µM
TGI (SK-OV-3 ovarian): 35.9 µM
GI50 (MALME-3M melanoma): 2.03 µM
TGI (MALME-3M melanoma): 3.84 µM
GI50 (HT29 colon): 18.2 µM
TGI (HT29 colon): > 100 µM
GI50 (MOLT-4 leukemia): 2.31 µM
TGI (MOLT-4 leukemia): 5.33 µM
GI50 (HCT-116 colon): 2.33 µM
TGI (HCT-116 colon): 6.44 µM
GI50 (COLO 205 colon): 10.7 µM
TGI (COLO 205 colon): 29.5 µM
GI50 (NCI-H23 lung): 2.8 µM
TGI (NCI-H23 lung): 7.87 µM
GI50 (SF-539 CNS): 2.33 µM
TGI (SF-539 CNS): 5.48 µM
GI50 (DU-145 prostate): 1.83 µM
TGI (DU-145 prostate): 3.32 µM
GI50 (A549 NSCLC): 8.3 µM
TGI (A549 NSCLC): 26.7 µM
GI50 (SN12C renal): 2.04 µM
TGI (SN12C renal): 4.36 µM
GI50 (HOP-62 NSCLC): 3.58 µM
TGI (HOP-62 NSCLC): 18.5 µM
GI50 (OVCAR-8 ovarian): 2.78 µM
TGI (OVCAR-8 ovarian): 7.87 µM
GI50 (NCI-H522 lung): 5.23 µM
TGI (NCI-H522 lung): 83.4 µM
GI50 (MDA-MB-231 breast): 2.1 µM
TGI (MDA-MB-231 breast): 5.5 µM
GI50 (NCI-H460 lung): 18.3 µM
TGI (NCI-H460 lung): 38.7 µM
GI50 (CCRF-CEM leukemia): 0.76 µM
TGI (CCRF-CEM leukemia): 8.29 µM
GI50 (LOX IMVI melanoma): 2.07 µM
TGI (LOX IMVI melanoma): 4.88 µM
GI50 (RXF 393 renal): 3.69 µM
TGI (RXF 393 renal): 14.1 µM
GI50 (SK-MEL-28 melanoma): 2.46 µM
TGI (SK-MEL-28 melanoma): 5.39 µM
GI50 (SK-MEL-5 melanoma): 1.79 µM
TGI (SK-MEL-5 melanoma): 3.35 µM
GI50 (SF-295 CNS): 15.7 µM
TGI (SF-295 CNS): 29.7 µM
GI50 (IGROV1 ovarian): 2.59 µM
TGI (IGROV1 ovarian): 5.51 µM
GI50 (NCI/ADR-RES ovarian): 2.96 µM
TGI (NCI/ADR-RES ovarian): 8.68 µM
GI50 (HS 578T breast): 2.75 µM
TGI (HS 578T breast): 9.98 µM
GI50 (SNB-75 CNS): 3.57 µM
TGI (SNB-75 CNS): 17.1 µM
GI50 (RPMI-8226 leukemia): 2.94 µM
TGI (RPMI-8226 leukemia): 20.1 µM
GI50 (UACC-257 melanoma): 1.87 µM
TGI (UACC-257 melanoma): 3.58 µM
GI50 (A498 renal): 17.3 µM
TGI (A498 renal): 33.3 µM
GI50 (T-47D breast): 2.58 µM
TGI (T-47D breast): 8.5 µM
GI50 (HL-60(TB) leukemia): 2.61 µM
TGI (HL-60(TB) leukemia): 6.95 µM
GI50 (SR leukemia): 4.24 µM
TGI (SR leukemia): 34.3 µM
GI50 (SNB-19 CNS): 9.35 µM
TGI (SNB-19 CNS): 28 µM
GI50 (HOP-92 NSCLC): 1.95 µM
TGI (HOP-92 NSCLC): 4.54 µM
GI50 (TK-10 renal): 18.4 µM
TGI (TK-10 renal): 32.7 µM
GI50 (PC-3 prostate): 2.93 µM
TGI (PC-3 prostate): 12.9 µM
GI50 (NCI-H226 lung): 18.3 µM
TGI (NCI-H226 lung): 38.9 µM
GI50 (HCT-15 colon): 2.95 µM
TGI (HCT-15 colon): 11.3 µM
GI50 (HCC-2998 colon): 18.4 µM
TGI (HCC-2998 colon): 33.4 µM
GI50 (UO-31 renal): 2.15 µM
TGI (UO-31 renal): 11.6 µM
GI50 (M14 melanoma): 2.42 µM
TGI (M14 melanoma): 6.12 µM
GI50 (K-562 leukemia): 3.19 µM
TGI (K-562 leukemia): 8.28 µM
GI50 (BT-549 breast): 8.45 µM
TGI (BT-549 breast): 21.2 µM
GI50 (MDA-MB-435): 1.82 µM
TGI (MDA-MB-435): 3.3 µM
GI50 (OVCAR-3 ovarian): 2.56 µM
TGI (OVCAR-3 ovarian): 6.4 µM
GI50 (CAKI-1 renal): 7.7 µM
TGI (CAKI-1 renal): 20.5 µM
GI50 (SW-620 colon): 2.45 µM
TGI (SW-620 colon): 7.65 µM
GI50 (SF-268 CNS): 3.2 µM
TGI (SF-268 CNS): 12.1 µM
GI50 (SK-MEL-2 melanoma): 3.42 µM
TGI (SK-MEL-2 melanoma): 16.2 µM
GI50 (KM12 colon): 6.27 µM
TGI (KM12 colon): 21.7 µM
GI50 (EKVX NSCLC): 2.64 µM
TGI (EKVX NSCLC): 7.52 µM
GI50 (U251 CNS): 2.96 µM
TGI (U251 CNS): 7.77 µM

Reference: PubChem BioAssay (NCI)
